Assay results: patent US6069130A, “Ketoheterocyclic inhibitors of factor Xa” (COR Therapeutics, Inc., priority 1995, dated 2000)

What was measured:
[1] = rabbit, in vivo
From the text: (§1) Rabbits were anesthetized with I.M. injections of Ketamine, Xylazine, and Acepromazine cocktail. A standardized protocol consisted of insertion of a thrombogenic cotton thread and copper wire apparatus into the abdominal vena cava of the anesthetized rabbit. A non-occlusive thrombus was allowed to develop in the central venous circulation and inhibition of thrombus growth was used as a measure of the antithrombotic activity of the studied compounds. Test agents or control saline were administered through a marginal ear vein catheter. A femoral vein catheter was used for blood sampling prior to and during steady state infusion of test compound. Initiation of thrombus formation begins immediately after advancement of the cotton thread apparatus into the central venous circulation. Test compounds were administered from time=30 min to time=150 min at which the experiment was terminated. The rabbits were euthanized and the thromidus excised by surgical dissection and characterized by weight and histology. Blood samples were analyzed for changes in hematological and coagulation parameters.

[2] = system: thrombus growth in abdominal vena cava; test: rabbit deep vein thrombosis model, inhibition of thrombus growth; format: in vivo; conditions: for of Thrombosis (inhibition of thrombus growth): rabbit
From the text: as §1

[3] = coagulation parameters (aPTT, PT) in rabbit venous thrombosis model; format: in vivo; conditions: for fold increase over baseline PT / fold increase over baseline aPTT: rabbit, steady state, mean ± SD
From the text: as §1

[4] = highest dose (100 μg/kg+2.57 μg/kg/min)

For `NC(N)=NCCCC(N)C(=O)NCC(=O)NC(CCCN=C(N)N)C(=O)c1nccs1` [H-D-Arg-Gly-Arg-thiazole, (D)-Arg-Gly-Arg-thiazole], which “effects on hematological parameters as compared to saline controls (in words)” value [1] is on record?
The value was “no significant effects”.

And the “antithrombotic efficacy in the rabbit venous thrombosis model (in words)” value ([2]; at the higher doses evaluated)?
The value was “demonstrated antithrombotic efficacy at the higher doses evaluated”.

And the “of Thrombosis (inhibition of thrombus growth)” value ([2]; i.v. 50 μg/kg + 1.28 μg/kg/min)?
Its value is -7.84.

What about the “of Thrombosis (inhibition of thrombus growth)” value ([2]; i.v. 75 μg/kg + 1.93 μg/kg/min) of the same molecule?
Its value is 42.955.

And the “of Thrombosis (inhibition of thrombus growth)” value ([2]; i.v. 100 μg/kg + 2.57 μg/kg/min)?
The value was 117.72.

What about the “effect on PT prolongation (in words)” value [3, 4] of the same molecule?
The value was “no significant effect”.

And the “effect on aPTT prolongation (in words)” value [3, 4]?
Its value is “no significant effect”.

What about the “fold increase over baseline PT” value ([3]; 50 μg/kg + 1.28 μg/kg/min) of the same molecule?
Its value is 1.00 ± 0.00 fold.

What about the “fold increase over baseline aPTT” value ([3]; 50 μg/kg + 1.28 μg/kg/min) of the same molecule?
The value was 1.00 ± 0.03 fold.

And the “fold increase over baseline PT” value ([3]; 75 μg/kg + 1.93 μg/kg/min)?
The value was 1.00 ± 0.00 fold.

What about the “fold increase over baseline aPTT” value ([3]; 75 μg/kg + 1.93 μg/kg/min) of the same molecule?
The value was 1.02 ± 0.03 fold.

And the “fold increase over baseline PT” value ([3]; 100 μg/kg + 2.57 μg/kg/min)?
Its value is 0.83 ± 0.00 fold.

What about the “fold increase over baseline aPTT” value ([3]; 100 μg/kg + 2.57 μg/kg/min) of the same molecule?
Its value is 1.08 ± 0.02 fold.
